Measured values reported in US11390648B2, “Peptide” (HYSENSBIO, priority 2017, dated 2022).

The substances below were run on Dspp gene (assay: Dspp mRNA level in human dental pulp cells treated with peptide (real-time PCR)). Details: hDPCs, peptide 10 μg/ml, 48 hours; ratio relative to Dspp mRNA level of untreated control; GAPDH internal control; triplicate.
Assay type: cell-based
Description: Human dental pulp cells were separated from wisdom teeth of adults (aged 18-22) at the School of Dentistry, Seoul National University. In detail, all experiments were performed after the approval of the Institutional Review Board and the informed consent from patients. Wisdom teeth were fractured according to a method of Jung HS et al. (J Mol Histol.(2011)) to expose the dental pulps, and dental pulp tissues were separated with forceps. Each of the separated dental pulp tissues was cut into small pieces with a razor blade, put in a 60-mm dish, covered with a coverslip, and then cultured in a Dulbecco's modified Eagle's medium. It has been known that human dental pulp cells can differentiate into odontoblast, osteoblast, cementoblast, and periodontal ligament cells under various conditions (Tissue Eng Part A. 2014 April; 20 (7-8): 1342-51).
Total RNA was extracted from human dental pulp cells (hDPCs), and human bone marrow mesenchymal stem cells (hBMSCs) with TRIzol reagent. 2 μg of the total RNA, 1 μl of reverse transcriptase, and 0.5 μg of oligo (oligo; dT) were used to synthesize cDNA. The synthesized cDNA was used in a real-time polymerase chain reaction. The real-time polymerase chain reaction was performed on an ABI PRISM 7500 sequence detection system (Applied Biosystems) and an SYBR GREEN PCR Master Mix (Takara, Japan). The real-time polymerase chain reaction was performed under conditions of 94° C., 1 min; 95° C., 15 sec; 60° C., 34 sec for 40 cycles. Results were analyzed by a comparative cycle threshold (CT) method. And the used primers are as follows (Table 17).
The human dental pulp cells (hDPCs) cultured in Example 3 were treated with the peptides (concentration of 10 μg/ml) of each group synthesized in Example 1-1, and cultured for 48 hours. Then, mRNA levels of an odontoblast differentiation marker Dspp gene expressed in the human dental pulp cells were measured, and a ratio of the measured Dspp mRNA level relative to a Dspp mRNA level measured in a control group was calculated, respectively (Tables 18 to 33).
The expression level of the Dspp gene was measured through RT-PCR and real-time PCR analysis described in Example 1-4. In this regard, GAPDH gene was used as an internal control. The experiments were performed in triplicate, and then mean values and standard deviations thereof were taken as measured values. The base sequence of the primers is described in Table 17 above.

Substance	mRNA level of Dspp gene, Mean
89 (KYQNRKK; Novel peptide) [compound 89]	1.635
39 (KYRRKKR; Novel peptide) [compound 39]	3.412
115 (KYRKRRK; Novel peptide) [compound 115]	1.707
117 (KYRKKKK; Novel peptide) [compound 117]	1.929
93 (KYQNKKK; Novel peptide) [compound 93]	1.892
18 (KYKQRKR; Novel peptide) [compound 18]	7.319
36 (KYRRRRR; Novel peptide) [compound 36]	3.256
32 (KYQQKRR; Novel peptide) [compound 32]	2.303
102 (KYNQKRK; Novel peptide) [compound 102]	1.855
116 (KYRKRRR; Novel peptide) [compound 116]	1.693
16 (KYRQKRR; Novel peptide) [compound 16]	7.739
112 (KYNNKRR; Novel peptide) [compound 112]	1.699
28 (KYQQRRR; Novel peptide) [compound 28]	2.781
24 (KYKQKRR; Novel peptide) [compound 24]	8.512
50 (KYQKRKR; Novel peptide) [compound 50]	1.803
74 (KYRNRKR; Novel peptide) [compound 74]	2.105
120 (KYRNKRR; Novel peptide) [compound 120]	1.878
25 (KYQQRKK; Novel peptide) [compound 25]	2.491
21 (KYKQKKK; Novel peptide) [compound 21]	7.893
107 (KYNNRRK; Novel peptide) [compound 107]	1.935
7 (KYQRKKR; Novel peptide) [compound 7]	6.881
30 (KYQQKRK; Novel peptide) [compound 30]	2.011

Substance	mRNA level of Dspp gene, Mean
98 (KYNQRKR; Novel peptide) [compound 98]	1.479
22 (KYKQKRK; Novel peptide) [compound 22]	7.412
118 (KYRKKRK; Novel peptide) [compound 118]	2.015
67 (KYNRRRK; Novel peptide) [compound 67]	2.452
70 (KYNRKRK; Novel peptide) [compound 70]	1.947
76 (KYRNRRR; Novel peptide) [compound 76]	2.394
5 (KYQRKKK; Novel peptide) [compound 5]	6.893
80 (KYRNKRR; Novel peptide) [compound 80]	2.636
4 (KYQRRRR; Novel peptide) [compound 4]	7.071
122 (KYKKRKR; Novel peptide) [compound 122]	1.979
119 (KYRNKKR; Novel peptide) [compound 119]	2.121
101 (KYNQKKK; Novel peptide) [compound 101]	1.674
37 (KYRRKKK; Novel peptide) [compound 37]	3.303
79 (KYRNKKR; Novel peptide) [compound 79]	2.403
43 (KYKRRRK; Novel peptide) [compound 43]	2.435
45 (KYKRKKK; Novel peptide) [compound 45]	3.051
44 (KYKRRRR; Novel peptide) [compound 44]	2.517
81 (KYKNRKK; Novel peptide) [compound 81]	1.757
33 (KYRRRKK; Novel peptide) [compound 33]	3.615
15 (KYRQKKR; Novel peptide) [compound 15]	6.764
73 (KYRNRKK; Novel peptide) [compound 73]	2.208
42 (KYKRRKR; Novel peptide) [compound 42]	2.808

Substance	mRNA level of Dspp gene, Mean
6 (KYQRKRK; Novel peptide) [compound 6]	6.931
38 (KYRRKRK; Novel peptide) [compound 38]	2.099
60 (KYNKRRR; Novel peptide) [compound 60]	2.089
94 (KYQNKRK; Novel peptide) [compound 94]	1.487
29 (KYQQKKK; Novel peptide) [compound 29]	2.926
63 (KYNKKKR; Novel peptide) [compound 63]	2.373
34 (KYRRRKR; Novel peptide) [compound 34]	3.727
109 (KYNNKKK; Novel peptide) [compound 109]	1.756
96 (KYQNKRR; Novel peptide) [compound 96]	2.011
100 (KYNQRRR; Novel peptide) [compound 100]	1.599
53 (KYQKKKK; Novel peptide) [compound 53]	1.422
113 (KYRKRKK; Novel peptide) [compound 113]	1.778
20 (KYKQRRR; Novel peptide) [compound 20]	7.553
41 (KYKRRKK; Novel peptide) [compound 41]	2.937
46 (KYKRKRK; Novel peptide) [compound 46]	2.733
55 (KYQKKKR; Novel peptide) [compound 55]	2
61 (KYNKKKK; Novel peptide) [compound 61]	1.909
114 (KYRKRKR; Novel peptide) [compound 114]	1.849
111 (KYNNKKR; Novel peptide) [compound 111]	1.918
110 (KYNNKRK; Novel peptide) [compound 110]	1.595
8 (KYQRKRR; Novel peptide) [compound 8]	6.531
69 (KYNRKKK; Novel peptide) [compound 69]	1.899

Substance	mRNA level of Dspp gene, Mean
126 (KYKKKRK; Novel peptide) [compound 126]	1.798
52 (KYQKRRR; Novel peptide) [compound 52]	1.949
48 (KYKRKRR; Novel peptide) [compound 48]	2.602
3 (KYQRRRK; Novel peptide) [compound 3]	6.512
92 (KYQNRRR; Novel peptide) [compound 92]	1.498
86 (KYKNKRK; Novel peptide) [compound 86]	1.736
12 (KYRQRRR; Novel peptide) [compound 12]	7.548
108 (KYNNRRR; Novel peptide) [compound 108]	1.495
49 (KYQKRKK; Novel peptide) [compound 49]	1.631
1 (KYQRRKK; Novel peptide) [compound 1]	7.371
23 (KYKQKKR; Novel peptide) [compound 23]	9.171
14 (KYRQKRK; Novel peptide) [compound 14]	6.839
124 (KYKKRRR; Novel peptide) [compound 124]	2.017
54 (KYQKKRK; Novel peptide) [compound 54]	1.638
13 (KYRQKKK; Novel peptide) [compound 13]	6.655
11 (KYRQRRK; Novel peptide) [compound 11]	7.385
88 (KYKNKRR; Novel peptide) [compound 88]	1.539
59 (KYNKRRK; Novel peptide) [compound 59]	2.463
64 (KYNKKRR; Novel peptide) [compound 64]	1.829
78 (KYRNKRK; Novel peptide) [compound 78]	2.109
